Results published in patent US9441012B2, “Fluorinated epoxyketone-based compounds and uses thereof as proteasome inhibitors” (FLUORINOV PHARMA INC., priority 2012, dated 2016).

How the values were obtained:
Assay in all cases: NCI 60 human tumor cell line screen (SRB)
Assay type in all cases: cell-based
LOX IMVI = LOX IMVI (Melanoma); 48 h
Description: (§1) Representative compounds of Formula I were screened using the National Cancer Institute (NCI) screening panel, which consists of a panel of 60 different human tumor cell lines, representing leukemia [CCRF-CEM, HL-60 (TB), K-562, MOLT-4, SR], melanoma [LOX IMVI, MALME-3M, M14, SMDA-MB-435, SK-MEL-2, SK-MEL-28, SK-MEL-5, UACC-257 and UACC-62] and cancers of the lung [A549/ATCC, EKVX, HOP-62, HOP-93, NCI-H226, NCI-H23, NCI-H322M, NCI-H460], colon [COLO 205, HCT-116, HCT-15, HT29, KM12, SW-620], brain [SF-268, SF-295, SF-539, SNB-19, SNB-75, U251], ovary [IGROV1, OVCAR-3, OVCAR-4, OVCAR-5, OVCAR-8, NCI/ADR-RES, SK-OV-3], breast [MCF7, MDA-MB-231, BT-549, T-47D, MDA-MB-468], prostate [PC-3, DU-145], and renal[786-0, A498, ACHN, CAKI-1, RXF-393, SN12C, TK-10, UO-31] cancers.
(§2) After 24 h, two plates of each cell line are fixed in situ with TCA, to represent a measurement of the cell population for each cell line at the time of drug addition (Tz). Experimental drugs are solubilised in dimethyl sulfoxide at 400-fold the desired final maximum test concentration and stored frozen prior to use. At the time of drug addition, an aliquot of frozen concentrate is thawed and diluted to twice the desired final maximum test concentration with complete medium containing 50 μg/ml gentamicin. Additional four, 10-fold or ½ log serial dilutions are made to provide a total of five drug concentrations plus control. Aliquots of 100 μl of these different drug dilutions are added to the appropriate microtiter wells already containing 100 μl of medium, resulting in the required final drug concentrations.
(§3) Following drug addition, the plates are incubated for an additional 48 h at 37° C., 5% CO2, 95% air, and 100% relative humidity. For adherent cells, the assay is terminated by the addition of cold TCA (trichloroacetic acid). Cells are fixed in situ by the gentle addition of 50 μl of cold 50% (w/v) TCA (final concentration, 10% TCA) and incubated for 60 minutes at 4° C. The supernatant is discarded, and the plates are washed five times with tap water and air dried. Sulforhodamine B (SRB) solution (100 μl) at 0.4% (w/v) in 1% acetic acid is added to each well, and plates are incubated for 10 minutes at room temperature. After staining, unbound dye is removed by washing five times with 1% acetic acid and the plates are air dried. Bound stain is subsequently solubilised with 10 mM trizma base, and the absorbance is read on an automated plate reader at a wavelength of 515 nm. For suspension cells, the methodology is the same except that the assay is terminated by fixing settled cells at the bottom of the wells by gently adding 50 μl of 80% TCA (final concentration, 16% TCA). Using the seven absorbance measurements [time zero, (Tz), control growth, (C), and test growth in the presence of drug at the five concentration levels (Ti)], the percentage growth is calculated at each of the drug concentration levels. Percentage growth inhibition is calculated as: [(Ti−Tz)/(C−Tz)]×100 for concentrations in which Ti>/=Tz and [(Ti−Tz)/Tz]×100 for concentrations in which Ti<Tz.
(§4) Three dose response parameters are calculated for each experimental agent. Growth inhibition of 50% (GI50) is calculated from [(Ti−Tz)/(C−Tz)]100=50, which is the drug concentration resulting in a 50% reduction in the net protein increase (as measured by SRB staining) in control cells during the drug incubation. The drug concentration resulting in total growth inhibition (TGI) is calculated from Ti=Tz. The LC50 (concentration of drug resulting in a 50% reduction in the measured protein at the end of the drug treatment as compared to that at the beginning) indicating a net loss of cells following treatment is calculated from [(Ti−Tz)/Tz]×100=−50. Values are calculated for each of these three parameters if the level of activity is reached. However, if the effect is not reached or is exceeded, the value for that parameter is expressed as greater or less than the maximum or minimum concentration tested.

HCC-2998 = HCC-2998 (Colon Cancer); 48 h
Description: as §1, §2, §3, §4

UACC-257 = UACC-257 (Melanoma); 48 h
Description: as §1, §2, §3, §4

HS 578T = HS 578T (Breast Cancer); 48 h
Description: as §1, §2, §3, §4

SF-295 = SF-295 (CNS Cancer); 48 h
Description: as §1, §2, §3, §4

NCI-H322M = NCI-H322M (Non-Small Cell Lung Cancer); 48 h
Description: as §1, §2, §3, §4

SNB-19 = SNB-19 (CNS Cancer); 48 h
Description: as §1, §2, §3, §4

M14 = M14 (Melanoma); 48 h
Description: as §1, §2, §3, §4

HL-60(TB) = HL-60(TB) (Leukemia); 48 h
Description: as §1, §2, §3, §4

A498 = A498 (Renal Cancer); 48 h
Description: as §1, §2, §3, §4

OVCAR-4 = OVCAR-4 (Ovarian Cancer); 48 h
Description: as §1, §2, §3, §4

IGROV1 = IGROV1 (Ovarian Cancer); 48 h
Description: as §1, §2, §3, §4

Cc1ncc(C(=O)N[C@@H](COC(F)F)C(=O)N[C@@H](COC(F)F)C(=O)N[C@@H](Cc2ccccc2)C(=O)[C@@]2(C)CO2)s1 [Example 1, 2-methyl-thiazole-5-carboxylic acid ((S)-1-{(S)-1-[(S)-1-benzyl-2-((R)-2-methyloxiranyl)-2-oxo-ethylcarbamoyl]-2-difluoromethoxyethylcarbamoyl}-2-difluoromethoxyethyl)-amide]
Log10GI50 (LOX IMVI): −6.96 | Log10LC50 (LOX IMVI): −6.16 | Log10TGI50 (LOX IMVI): −6.56 | Log10GI50 (HCC-2998): −6.74 | Log10LC50 (HCC-2998): −6.15 | Log10TGI50 (HCC-2998): −6.45 | Log10GI50 (UACC-257): −6.87 | Log10LC50 (UACC-257): >−4.00 | Log10TGI50 (UACC-257): −6.20 | Log10GI50 (HS 578T): −7.33 | Log10LC50 (HS 578T): >−4.00 | Log10TGI50 (HS 578T): −5.44 | Log10GI50 (SF-295): −7.17 | Log10LC50 (SF-295): −4.88 | Log10TGI50 (SF-295): −6.24 | Log10GI50 (NCI-H322M): −5.54 | Log10LC50 (NCI-H322M): −4.23 | Log10TGI50 (NCI-H322M): −4.74 | Log10GI50 (SNB-19): −6.49 | Log10LC50 (SNB-19): >−4.00 | Log10TGI50 (SNB-19): >−4.00 | Log10GI50 (M14): −6.86 | Log10LC50 (M14): −4.35 | Log10TGI50 (M14): −6.24 | Log10GI50 (HL-60(TB)): −6.56 | Log10LC50 (HL-60(TB)): >−4.00 | Log10TGI50 (HL-60(TB)): >−4.00 | Log10GI50 (A498): −8.00 | Log10LC50 (A498): −4.88 | Log10TGI50 (A498): −6.38 | Log10GI50 (OVCAR-4): −6.29 | Log10LC50 (OVCAR-4): >−4.00 | Log10TGI50 (OVCAR-4): >−4.00

CC(C)C[C@H](NC(=O)[C@H](Cc1ccccc1)NC(=O)[C@H](COC(F)F)NC(=O)CN1CCOCC1)C(=O)[C@@]1(C)CO1 [Example 25, (2S)-2-[[(2S)-3-(difluoromethoxy)-2-[(2-morpholinoacetyl)amino]propanoyl]amino]-N-[(1S)-3-methyl-1-[(2R)-2-methyloxirane-2-carbonyl]butyl]-3-phenyl-propanamide]
Log10GI50 (LOX IMVI): −7.73 | Log10LC50 (LOX IMVI): −7.10 | Log10TGI50 (LOX IMVI): −7.42 | Log10GI50 (IGROV1): −7.43 | Log10LC50 (IGROV1): >−4.00 | Log10TGI50 (IGROV1): −6.38 | Log10GI50 (HCC-2998): −7.74 | Log10LC50 (HCC-2998): −7.20 | Log10TGI50 (HCC-2998): −7.47 | Log10GI50 (UACC-257): −7.18 | Log10LC50 (UACC-257): >−4.00 | Log10TGI50 (UACC-257): −6.32 | Log10GI50 (HS 578T): −7.54 | Log10LC50 (HS 578T): >−4.00 | Log10TGI50 (HS 578T): −6.24 | Log10GI50 (SF-295): −7.68 | Log10LC50 (SF-295): −6.49 | Log10TGI50 (SF-295): −7.26 | Log10GI50 (NCI-H322M): −7.10 | Log10LC50 (NCI-H322M): >−4.00 | Log10TGI50 (NCI-H322M): −6.33 | Log10GI50 (SNB-19): −7.23 | Log10LC50 (SNB-19): >−4.00 | Log10TGI50 (SNB-19): >−4.00 | Log10GI50 (M14): −7.48 | Log10LC50 (M14): >−4.00 | Log10TGI50 (M14): −6.71 | Log10GI50 (HL-60(TB)): −7.45 | Log10LC50 (HL-60(TB)): >−4.00 | Log10TGI50 (HL-60(TB)): −6.35 | Log10GI50 (A498): −7.61 | Log10LC50 (A498): −6.34 | Log10TGI50 (A498): −7.03 | Log10GI50 (OVCAR-4): −7.50 | Log10LC50 (OVCAR-4): >−4.00 | Log10TGI50 (OVCAR-4): −6.75

C[C@]1(C(=O)[C@H](Cc2ccccc2)NC(=O)[C@H](COC(F)F)NC(=O)[C@H](COC(F)F)NC(=O)CN2CCOCC2)CO1 [Example 26, (S)-N-{(S)-1-[(S)-1-Benzyl-2-((R)-2-methyl-oxiranyl)-2-oxo-ethylcarbamoyl]-2-difluoromethoxyethyl}-3-difluoromethoxy-2-(2-morpholin-4-yl-acetylamino)-propio-namide]
Log10GI50 (LOX IMVI): −7.73 | Log10LC50 (LOX IMVI): −7.10 | Log10TGI50 (LOX IMVI): −7.42 | Log10GI50 (IGROV1): −7.43 | Log10LC50 (IGROV1): >−4.00 | Log10GI50 (HCC-2998): −7.74 | Log10LC50 (HCC-2998): −7.20 | Log10TGI50 (HCC-2998): −7.47 | Log10GI50 (UACC-257): −7.18 | Log10LC50 (UACC-257): >−4.00 | Log10TGI50 (UACC-257): −6.32 | Log10GI50 (HS 578T): −7.54 | Log10LC50 (HS 578T): >−4.00 | Log10TGI50 (HS 578T): −6.24 | Log10GI50 (SF-295): −7.68 | Log10LC50 (SF-295): −6.49 | Log10TGI50 (SF-295): −7.26 | Log10GI50 (NCI-H322M): −7.10 | Log10LC50 (NCI-H322M): >−4.00 | Log10TGI50 (NCI-H322M): −6.33 | Log10GI50 (SNB-19): −7.23 | Log10LC50 (SNB-19): >−4.00 | Log10TGI50 (SNB-19): >−4.00 | Log10GI50 (M14): −7.48 | Log10LC50 (M14): >−4.00 | Log10TGI50 (M14): −6.71 | Log10GI50 (HL-60(TB)): −7.45 | Log10LC50 (HL-60(TB)): >−4.00 | Log10TGI50 (HL-60(TB)): −6.35 | Log10GI50 (A498): −7.61 | Log10LC50 (A498): −6.34 | Log10TGI50 (A498): −7.03 | Log10GI50 (OVCAR-4): −7.50 | Log10LC50 (OVCAR-4): >−4.00 | Log10TGI50 (OVCAR-4): −6.75

C[C@]1(C(=O)[C@H](Cc2ccccc2)NC(=O)[C@H](Cc2ccccc2)NC(=O)[C@H](COC(F)F)NC(=O)CN2CCOCC2)CO1 [Example 29]
Log10GI50 (LOX IMVI): −7.50 | Log10LC50 (LOX IMVI): −6.35 | Log10TGI50 (LOX IMVI): −6.90 | Log10GI50 (IGROV1): −6.67 | Log10LC50 (IGROV1): >−4.00 | Log10TGI50 (IGROV1): >−4.00 | Log10GI50 (HCC-2998): −6.80 | Log10LC50 (HCC-2998): −6.21 | Log10TGI50 (HCC-2998): −6.50 | Log10GI50 (UACC-257): −6.81 | Log10LC50 (UACC-257): >−4.00 | Log10TGI50 (UACC-257): −6.00 | Log10GI50 (HS 578T): −7.07 | Log10LC50 (HS 578T): >−4.00 | Log10TGI50 (HS 578T): >−4.00 | Log10GI50 (SF-295): −7.19 | Log10LC50 (SF-295): −5.94 | Log10TGI50 (SF-295): −6.55 | Log10GI50 (NCI-H322M): −6.27 | Log10LC50 (NCI-H322M): −4.18 | Log10TGI50 (NCI-H322M): −5.52 | Log10GI50 (SNB-19): −6.51 | Log10LC50 (SNB-19): >−4.00 | Log10TGI50 (SNB-19): >−4.00 | Log10GI50 (M14): −7.21 | Log10LC50 (M14): >−4.00 | Log10TGI50 (M14): −5.85 | Log10GI50 (A498): −6.68 | Log10LC50 (A498): −5.47 | Log10TGI50 (A498): −6.11 | Log10GI50 (OVCAR-4): −6.98 | Log10TGI50 (OVCAR-4): >−4.00
